Measurements published in patent publication US8546383B2, “Chiral fused [1,2]imidazo[4,5-c] ring compounds” (3M Innovative Properties Company, priority 2004, dated 2013).
Structures can show the parent of a compound that is named as a salt.

Compound | melting point
C[C@@H]1COCc2nc3c(N)nc4c(c3n21)CCCC4 [Example 27] | 209 to 211 °C
C[C@H](O)[C@H]1COCc2nc3c(N)nc4ccccc4c3n21 [Example 41, (1S)-1-[(11R)-6-amino-10,11-dihydro-8H-[1,4]oxazino[4′,3′:1,2]imidazo[4,5-c]quinolin-1′-yl]ethanol] | 207.6 to 208.7 °C
CC(C)(O)[C@H]1COCc2nc3c(N)nc4ccccc4c3n21 [Example 13, 2-[(11R)-6-Amino-10,11-dihydro-8H-[1,4]oxazino[4′,3′:1,2]imidazo[4,5-c]quinolin-11-yl]propan-2-ol] | 216 to 217 °C
C#CCOc1ccc2nc(N)c3nc4n(c3c2c1)[C@@H](C)COC4 [Example 51, (11S)-11-Methyl-2-(prop-2-ynyloxy)-10,11-dihydro-8H-[1,4]oxazino[4′,3′:1,2]imidazo[4,5-c]quinolin-6-amine] | 184 to 186 °C
C[C@H]1COCc2nc3c(N)nc4c(c3n21)CCCC4 [Example 6, (11S)-11-Methyl-2,3,4,8,10,11-hexahydro-1H-[1,4]oxazino[4′,3′:1,2]imidazo[4,5-c]quinolin-6-amine] | 209 to 211 °C
CC(C)[C@H]1COCc2nc3c(N)nc4c(c3n21)CCCC4 [Example 2, (11S)-11-Isopropyl-2,3,4,8,10,11-hexahydro-1H-[1,4]oxazino[4′,3′:1,2]imidazo[4,5-c]quinolin-6-amine] | 158 to 160 °C
Nc1nc2ccccc2c2c1nc1n2[C@@H](Cc2ccc(F)cc2)COC1 [Example 46, (11S)-11-(4-Fluorobenzyl)-10,11-dihydro-8H-[1,4]oxazino[4′,3′:1,2]imidazo[4,5-c]quinolin-6-amine] | 170 to 172 °C
CC(C)(F)[C@H]1COCc2nc3c(N)nc4cc(O)ccc4c3n21 [Example 17, (11R)-6-Amino-11-(1-fluoro-1-methylethyl)-10,11-dihydro-8H-[1,4]oxazino[4′,3′:1,2]imidazo[4,5-c]quinolin-3-ol] | 219 to 221 °C
C[C@H]1COCc2nc3c(N)nc4cccnc4c3n21 [Example 15, (11S)-11-Methyl-10,11-dihydro-8H-[1,4]oxazino[4′,3′:1,2]imidazo[4,5-c][1,5]naphthyridin-6-amine] | 240 to 242 °C
CC(C)[C@H]1COCc2nc3c(N)nc4ccc(O)cc4c3n21 [Example 20, (11S)-6-Amino-11-isopropyl-10,11-dihydro-8H-[1,4]oxazino[4′,3′:1,2]imidazo[4,5-c]quinolin-2-ol] | 208 to 210 °C
Nc1nc2ccccc2c2c1nc1n2[C@@H](Cc2ccc(O)cc2)COC1 (as salt: hydrochloride) [Example 48, 4-{[(11S)-6-Amino-10,11-dihydro-8H-[1,4]oxazino[4′,3′:1,2]imidazo[4,5-c]quinolin-11-yl]methyl}phenol] | > 240 °C (dec.)
CC(C)(O)[C@H]1COCc2nc3c(N)nc4cccnc4c3n21 [Example 33, 2-[(11R)-6-Amino-10,11-dihydro-8H-[1,4]oxazino[4′,3′:1,2]imidazo[4,5-c]-1,5-naphthyridin-11-yl]propan-2-ol] | 242 to 246 °C
C[C@H](OCc1ccccc1)[C@H]1COCc2nc3c(N)nc4ccccc4c3n21 [Example 40, (11R)-11-[(1S)-1-(benzyloxy)ethyl]-10,11-dihydro-8H-[1,4]oxazino[4′,3′:1,2]imidazo[4,5-c]quinolin-6-amine] | 86.6 to 89.7 °C
C[C@@H]1COCc2nc3c(N)nc4ccccc4c3n21 [Example 26] | 280 to 282 °C
CC1COCc2nc3c(N)nc4ccc(OCc5ccccc5)cc4c3n21 (stereo in doubt) [Example 18, (11R)-2-(Benzyloxy)-11-methyl-10,11-dihydro-8H-[1,4]oxazino[4′,3′:1,2]imidazo[4,5-c]quinolin-6-amine] | 100 to 120 °C
Nc1nc2ccccc2c2c1nc1n2[C@@H](C2CCCCC2)COC1 [Example 47, (11S)-11-Cyclohexyl-10,11-dihydro-8H-[1,4]oxazino[4′,3′:1,2]imidazo[4,5-c]quinolin-6-amine] | 228 to 230 °C
CC(C)(F)[C@@H]1COCc2nc3c(N)nc4ccccc4c3n21 [Example 30] | 242 to 244 °C
Nc1nc2ccccc2c2c1nc1n2[C@@H](Cc2ccccc2)COC1 [Example 10, (11S)-11-Benzyl-10,11-dihydro-8H-[1,4]oxazino[4′,3′:1,2]imidazo[4,5-c]quinolin-6-amine] | 170 to 177 °C
Nc1nc2ccccc2c2c1nc1n2[C@H](c2ccccc2)COC1 [Example 28] | 284 to 286 °C
CN1CCN(C[C@H]2COCc3nc4c(N)nc5ccccc5c4n32)CC1 [Example 37, (11S)-11-[(4-Methylpiperazin-1-yl)methyl]-10,11-dihydro-8H-[1,4]oxazino[4′,3′:1,2]imidazo[4,5-c]quinolin-6-amine] | 187 to 190 °C

Compound | melting point
Nc1nc2ccccc2c2c1nc1n2[C@@H](c2cc(-c3ccc(F)cc3)no2)COC1 [Example 50, (11R)-11-[3-(4-Fluorophenyl)isoxazol-5-yl]-10,11-dihydro-8H-[1,4]oxazino[4′,3′:1,2]imidazo[4,5-c]quinolin-6-amine] | 261 to 262 °C
C[C@H]1COCc2nc3c(N)nc4ccc(O)cc4c3n21 [Example 21, (11S)-6-Amino-11-methyl-10,11-dihydro-8H-[1,4]oxazino[4′,3′:1,2]imidazo[4,5-c]quinolin-2-ol] | 262 to 264 °C
C[C@H]1COCc2nc3c(N)nc4ccc(OC(=O)N5CCCC5)cc4c3n21 [Example 53, (11S)-6-Amino-11-methyl-10,11-dihydro-8H-[1,4]oxazino[4′,3′:1,2]imidazo[4,5-c]quinolin-2-ylpyrrolidine-1-carboxylate] | 218 to 219 °C
CC(C)[C@H]1COCc2nc3c(N)nc4cc(O)ccc4c3n21 [Example 4, (11S)-6-Amino-11-isopropyl-10,11-dihydro-8H-[1,4]oxazino[4′,3′:1,2]imidazo[4,5-c]quinolin-3-ol] | 210 to 215 °C
C[C@H]1CN(S(C)(=O)=O)Cc2nc3c(N)nc4ccccc4c3n21 [Example 23, (11S)-11-Methyl-9-(methylsulfonyl)-8,9,10,11-tetrahydropyrazino[1′,2′:1,2]imidazo[4,5-c]quinolin-6-amine] | 258 to 261 °C
C[C@@H](OCc1ccccc1)[C@H]1COCc2nc3c(N)nc4ccccc4c3n21 [Example 38, (11R)-11-[(1R)-1-(benzyloxy)ethyl]-10,11-dihydro-8H-[1,4]oxazino[4′,3′:1,2]imidazo[4,5-c]quinolin-6-amine] | 189 to 190.8 °C
CC(C)[C@@H]1COCc2nc3c(N)nc4ccccc4c3n21 [Example 25] | 248 to 249 °C
Nc1nc2ccccc2c2c1nc1n2[C@@H](C2CCOCC2)COC1 [Example 43, (11S)-11-Tetrahydro-2H-pyran-4-yl-10,11-dihydro-8H-[1,4]oxazino[4′,3′:1,2]imidazo[4,5-c]quinolin-6-amine] | 240.4 to 243.4 °C
CC(C)[C@H]1COCc2nc3c(N)nc4cc(OCc5ccccc5)ccc4c3n21 [Example 3, (11S)-3-(Benzyloxy)-11-isopropyl-10,11-dihydro-8H-[1,4]oxazino[4′,3′:1,2]imidazo[4,5-c]quinolin-6-amine] | 227 to 229 °C
CCOc1ccc2nc(N)c3nc4n(c3c2c1)[C@@H](C)COC4 [Example 57, (11S)-2-Ethoxy-11-methyl-10,11-dihydro-8H-[1,4]oxazino[4′,3′:1,2]imidazo[4,5-c]quinolin-6-amine] | 187 to 188 °C
Nc1nc2ccccc2c2c1nc1n2[C@H](Cc2ccccc2)COC1 (hydrate or solvate) [Example 29] | 170 to 177 °C
Nc1nc2ccccc2c2c1nc1n2[C@@H](c2ccccc2)COC1 [Example 9, (11S)-11-Phenyl-10,11-dihydro-8H-[1,4]oxazino[4′,3′:1,2]imidazo[4,5-c]quinolin-6-amine] | 284 to 286 °C
CC(C)[C@H]1COCc2nc3c(N)nc4cc(OCC(=O)N5CCOCC5)ccc4c3n21 [Example 58, (11S)-11-Isopropyl-3-(2-morpholin-4-yl-2-oxoethoxy)-10,11-dihydro-8H-[1,4]oxazino[4′,3′:1,2]imidazo[4,5-c]quinolin-6-amine] | 137 to 139 °C
C[C@H]1COCc2nc3c(N)nc4ccc(OCC(=O)N5CCOCC5)cc4c3n21 [Example 55, (11S)-11-Methyl-2-(2-morpholin-4-yl-2-oxoethoxy)-10,11-dihydro-8H-[1,4]oxazino[4′,3′:1,2]imidazo[4,5-c]quinolin-6-amine] | 226 to 228 °C
CC(C)(O)[C@@H]1COCc2nc3c(N)nc4ccccc4c3n21 (as salt: hydrochloride) [Example 31] | 218 to 219 °C
C[C@H]1COCc2nc3c(N)nc4cc(CCS(C)(=O)=O)ccc4c3n21 [Example 61, (11S)-11-Methyl-3-[2-(methylsulfonyl)ethyl]-10,11-dihydro-8H-[1,4]oxazino[4′,3′:1,2]imidazo[4,5-c]quinolin-6-amine] | 205 to 206 °C
CC(C)(F)[C@H]1COCc2nc3c(N)nc4c(c3n21)CCCC4 [Example 12, (11R)-11-(1-Fluoro-1-methylethyl)-2,3,4,8,10,11-hexahydro-1H-[1,4]oxazino[4′,3′:1,2]imidazo[4,5-c]quinolin-6-amine] | 195.5 to 197 °C
C[C@@H](O)[C@H]1COCc2nc3c(N)nc4ccccc4c3n21 [Example 39, (1R)-1-[(11R)-6-Amino-10,11-dihydro-8H-[1,4]oxazino[4′,3′:1,2]imidazo[4,5-c]quinolin-11-yl]ethanol] | 215.3 to 218.6 °C
C[C@H]1COCc2nc3c(N)nc4cc(CCC(=O)N(C)C)ccc4c3n21 [Example 64, 3-[(11S)-6-Amino-11-methyl-10,11-dihydro-8H-[1,4]oxazino[4′,3′:1,2]imidazo[4,5-c]quinolin-3-yl]-N,N-dimethylpropanamide] | 235 to 237 °C
Cc1nc(N)c2nc3n(c2c1C)[C@@H](C)COC3 [Example 44, (4S)-4,6,7-Trimethyl-3,4-dihydro-1H-pyrido[3′,4′:4,5]imidazo[2,1-c][1,4]oxazin-9-amine] | 264 to 267 °C
